Data from US9751869B2, “LXR modulators” (BRISTOL-MYERS SQUIBB COMPANY, priority 2013, dated 2017).

Biological target: T1, LXRβ (Homo sapiens, UniProt P55055)
T1 construct: Co-transfection expression plasmids, comprising full-length LXRα (pCMX-h LXRα or LXRβ (pCMX-hLXRβ)); expressed in transfected cells; host or cells: CV-1 African green monkey kidney cells, transient transfection with pCMX-hLXRβ
T1 sequence (P55055 1-460): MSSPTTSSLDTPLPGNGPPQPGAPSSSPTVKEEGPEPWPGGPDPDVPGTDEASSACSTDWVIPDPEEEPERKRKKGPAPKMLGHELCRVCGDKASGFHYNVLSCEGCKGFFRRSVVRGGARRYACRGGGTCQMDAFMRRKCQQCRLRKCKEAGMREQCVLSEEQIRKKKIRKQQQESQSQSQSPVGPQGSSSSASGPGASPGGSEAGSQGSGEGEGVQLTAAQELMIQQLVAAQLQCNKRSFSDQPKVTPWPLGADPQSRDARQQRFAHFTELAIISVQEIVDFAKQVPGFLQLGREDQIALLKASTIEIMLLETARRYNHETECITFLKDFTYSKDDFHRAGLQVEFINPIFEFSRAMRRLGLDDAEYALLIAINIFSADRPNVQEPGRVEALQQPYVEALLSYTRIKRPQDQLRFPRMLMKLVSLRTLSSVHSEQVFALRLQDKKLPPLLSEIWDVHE
T1 sequence (P19793 1-462 partner): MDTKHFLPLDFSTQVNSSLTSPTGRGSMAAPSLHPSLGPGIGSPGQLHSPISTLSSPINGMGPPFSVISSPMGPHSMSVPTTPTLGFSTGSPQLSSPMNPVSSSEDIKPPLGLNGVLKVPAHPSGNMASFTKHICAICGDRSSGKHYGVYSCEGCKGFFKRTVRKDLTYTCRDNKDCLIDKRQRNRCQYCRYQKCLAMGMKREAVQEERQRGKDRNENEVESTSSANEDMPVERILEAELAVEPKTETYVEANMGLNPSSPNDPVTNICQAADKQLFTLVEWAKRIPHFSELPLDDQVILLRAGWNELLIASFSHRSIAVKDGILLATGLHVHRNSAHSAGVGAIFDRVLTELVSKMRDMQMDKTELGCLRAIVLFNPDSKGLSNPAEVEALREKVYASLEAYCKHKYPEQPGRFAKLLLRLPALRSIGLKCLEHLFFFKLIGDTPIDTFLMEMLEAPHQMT
Assay: LXR/LXRE co-transfection assay (luciferase reporter) in CV-1 cells, LXRβ
Assay type: cell-based
Conditions: for EC50: CV-1 cells transfected with pCMX-hLXRβ and LXREx1-Tk-Luciferase, 20 hours incubation, read-out: LXRbeta agonism EC50; for Emax: CV-1 cells, relative to maximum response of high control N-(3-((4-fluorophenyl)-(naphthalene-2-sulfonyl)amino)propyl)-2,2-dimethylpropionamide, read-out: LXRbeta % EFFICACY
Summary of the method: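 Luciferase read-out after 20 h compound treatment at 37 °C of CV-1 cells carrying transfected hLXRβ plus one-copy LXRE reporter, endogenous RXR partnering. Sigmoidal fit of 10-point half-log curves (4 wells each) gave EC50; % efficacy versus maximal response of the propionamide reference agonist.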

## Cc1nc(-c2ccc(OC(F)(F)F)cc2)c(-c2cc(-c3cccc(C(C)(C)C(N)=O)c3)ccc2-n2ccc(C(F)(F)F)n2)o1 [Example 343, 2-methyl-2-(3′-(2-methyl-4-(4-(trifluoromethoxy)phenyl)oxazol-5-yl)-4′-(3-(trifluoromethyl)-1H-pyrazol-1-yl)biphenyl-3-yl) propanamide]
  EC50: 149 nM
  Emax: 74%

## Cc1nc(-c2ccc(Cl)cc2)c(-c2cc(-c3cccc(S(C)(=O)=O)c3)ccc2-n2ccc(C(F)(F)F)n2)o1 [Example 344, 4-(4-chlorophenyl)-2-methyl-5-(3′-(methylsulfonyl)-4-(3-(trifluoromethyl)-1H-pyrazol-1-yl)biphenyl-3-yl)oxazole]
  EC50: 116 nM
  Emax: 72%

## Cc1nc(-c2ccc(OC(F)(F)F)cc2)c(-c2cc(-c3cccc(S(C)(=O)=O)c3)ccc2-n2nc(C(F)(F)F)cc2Cl)o1 [Example 345, 5-(4-(5-chloro-3-(trifluoromethyl)-1H-pyrazol-1-yl)-3′-(methylsulfonyl)biphenyl-3-yl)-2-methyl-4-(4-(trifluoromethoxy)phenyl)oxazole]
  EC50: 73 nM
  Emax: 75%

## Cc1nc(-c2ccc3c(c2)OC(F)(F)O3)c(-c2cc(-c3cccc(S(C)(=O)=O)c3)ccc2-n2nc(C(F)(F)F)cc2Cl)o1 [Example 346, 5-(4-(5-chloro-3-(trifluoromethyl)-1H-pyrazol-1-yl)-3′-(methylsulfonyl)biphenyl-3-yl)-4-(2,2-difluorobenzo[d][1,3]dioxol-5-yl)-2-methyloxazole]
  EC50: 37 nM
  Emax: 90%

## Cc1nc(-c2ccc3c(c2)OC(F)(F)O3)c(-c2cc(-c3cc(F)c(CO)c(S(C)(=O)=O)c3)ccc2-n2nc(C(F)(F)F)cc2Cl)o1 [Example 347, (4′-(5-chloro-3-(trifluoromethyl)-1H-pyrazol-1-yl)-3′-(4-(2,2-difluorobenzo[d] [1,3]dioxol-5-yl)-2-methyloxazol-5-yl)-3-fluoro-5-(methylsulfonyl)biphenyl-4-yl)methanol]
  EC50: 35 nM
  Emax: 92%

## Cc1nc(-c2ccc(OC(F)(F)F)cc2)c(-c2cc(-c3cc(F)c(CO)c(S(C)(=O)=O)c3)ccc2-n2nc(C(F)(F)F)cc2Cl)o1 [Example 348, (4′-(5-chloro-3-(trifluoromethyl)-1H-pyrazol-1-yl)-3-fluoro-3′-(2-methyl-4-(4-(trifluoromethoxy)phenyl)oxazol-5-yl)-5-(methylsulfonyl)biphenyl-4-yl)methanol]
  EC50: 59 nM
  Emax: 57%

## Cc1nc(-c2ccc3c(c2)OC(F)(F)O3)c(-c2cc(-c3cc(F)c(CO)c(S(C)(=O)=O)c3)ccc2-n2ccc(C(F)(F)F)n2)o1 [Example 349, (3′-(4-(2,2-difluorobenzo[d][1,3]dioxol-5-yl)-2-methyloxazol-5-yl)-3-fluoro-5-(methylsulfonyl)-4′-(3-(trifluoromethyl)-1H-pyrazol-1-yl)biphenyl-4-yl)methanol]
  EC50: 8 nM
  Emax: 72%

## Cc1nc(-c2ccc3c(c2)OC(F)(F)O3)c(-c2cc(-c3cccc(S(C)(=O)=O)c3)ccc2-n2ccc(C(F)(F)F)n2)o1 [Example 350, 4-(2,2-difluorobenzo[d][1,3]dioxol-5-yl)-2-methyl-5-(3′-(methylsulfonyl)-4-(3-(trifluoromethyl)-1H-pyrazol-1-yl)biphenyl-3-yl)oxazole]
  EC50: 66 nM
  Emax: 91%

## Cc1nc(-c2cc(F)c(OC(F)F)c(F)c2)c(-c2cc(-c3cccc(S(C)(=O)=O)c3)ccc2-n2ccc(C(F)(F)F)n2)o1 [Example 351, 4-(4-(difluoromethoxy)-3,5-difluorophenyl)-2-methyl-5-(3′-(methylsulfonyl)-4-(3-(trifluoromethyl)-1H-pyrazol-1-yl)biphenyl-3-yl)oxazole]
  EC50: 62 nM
  Emax: 77%

## Cc1nc(-c2cc(F)c(OC(F)F)c(F)c2)c(-c2cc(-c3cc(F)c(CO)c(S(C)(=O)=O)c3)ccc2-n2ccc(C(F)(F)F)n2)o1 [Example 352, (3′-(4-(4-(difluoromethoxy)-3,5-difluorophenyl)-2-methyloxazol-5-yl)-3-fluoro-5-(methylsulfonyl)-4′-(3-(trifluoromethyl)-1H-pyrazol-1-yl)biphenyl-4-yl)methanol]
  EC50: 14 nM
  Emax: 76%

## Cc1nc(-c2ccc(OC(F)F)nc2)c(-c2cc(-c3cccc(S(C)(=O)=O)c3)ccc2-n2ccc(C(F)(F)F)n2)o1 [Example 353, 4-(6-(difluoromethoxy)pyridin-3-yl)-2-methyl-5-(3′-(methylsulfonyl)-4-(3-(trifluoromethyl)-1H-pyrazol-1-yl)biphenyl-3-yl)oxazole]
  EC50: 23 nM
  Emax: 93%

## Cc1nc(-c2ccc(OC(F)F)nc2)c(-c2cc(-c3cc(F)c(CO)c(S(C)(=O)=O)c3)ccc2-n2ccc(C(F)(F)F)n2)o1 [Example 354, (3′-(4-(6-(difluoromethoxy)pyridin-3-yl)-2-methyloxazol-5-yl)-3-fluoro-5-(methylsulfonyl)-4′-(3-(trifluoromethyl)-1H-pyrazol-1-yl)biphenyl-4-yl)methanol]
  EC50: 10 nM
  Emax: 101%

## Cc1nc(-c2ccc(Cl)c(OC(F)F)c2)c(-c2cc(-c3cccc(S(C)(=O)=O)c3)ccc2-n2ccc(C(F)(F)F)n2)o1 [Example 355, 4-(4-chloro-3-(difluoromethoxy)phenyl)-2-methyl-5-(3′-(methylsulfonyl)-4-(3-(trifluoromethyl)-1H-pyrazol-1-yl)biphenyl-3-yl)oxazole]
  EC50: 196 nM
  Emax: 65%

## Cc1nc(-c2ccc(Cl)c(OC(F)F)c2)c(-c2cc(-c3cc(F)c(CO)c(S(C)(=O)=O)c3)ccc2-n2ccc(C(F)(F)F)n2)o1 [Example 356, (3′-(4-(4-chloro-3-(difluoromethoxy)phenyl)-2-methyloxazol-5-yl)-3-fluoro-5-(methylsulfonyl)-4′-(3-(trifluoromethyl)-1H-pyrazol-1-yl)biphenyl-4-yl)methanol]
  EC50: 71 nM
  Emax: 63%

## Cc1nc(-c2ccc3c(c2)OC(F)(F)O3)c(-c2cc(-c3cccc(S(C)(=O)=O)c3)ccc2-n2ccc(C(C)(C)O)n2)o1 [Example 357, 2-(1-(3-(4-(2,2-difluorobenzo[d][1,3]dioxol-5-yl)-2-methyloxazol-5-yl)-3′-(methylsulfonyl)-[1,1′-biphenyl]-4-yl)-1H-pyrazol-3-yl)propan-2-ol]
  EC50: 392 nM
  Emax: 41%

## Cc1nc(-c2ccc3c(c2)OC(F)(F)O3)c(-c2cc(-c3cc(F)c(CO)c(S(C)(=O)=O)c3)ccc2-n2ccc(C(C)(C)O)n2)o1 [Example 358, 2-(1-(3-(4-(2,2-difluorobenzo[d][1,3]dioxol-5-yl)-2-methyloxazol-5-yl)-3′-fluoro-4′-(hydroxymethyl)-5′-(methylsulfonyl)-[1,1′-biphenyl]-4-yl)-1H-pyrazol-3-yl)propan-2-ol]
  EC50: 105 nM
  Emax: 30%

## Cc1nc(-c2ccc3c(c2)OC(F)(F)O3)c(-c2cc(-c3cccc(S(C)(=O)=O)c3)ccc2-n2ccc(C(N)=O)n2)o1 [Example 359, 1-(3-(4-(2,2-difluorobenzo[d][1,3]dioxol-5-yl)-2-methyloxazol-5-yl)-3′-(methylsulfonyl)-[1,1′-biphenyl]-4-yl)-1H-pyrazole-3-carboxamide]
  EC50: 316 nM
  Emax: 14%

## Cc1nc(-c2ccc3c(c2)OC(F)(F)O3)c(-c2cc(-c3cc(F)c(CO)c(S(C)(=O)=O)c3)ccc2-n2ccc(C(N)=O)n2)o1 [Example 360, 1-(3-(4-(2,2-difluorobenzo[d][1,3]dioxol-5-yl)-2-methyloxazol-5-yl)-3-fluoro-4′-(hydroxymethyl)-5′-(methylsulfonyl)-[1,1′-biphenyl]-4-yl)-1H-pyrazole-3-carboxamide]
  EC50: 263 nM
  Emax: 12%

## CS(=O)(=O)c1cccc(-c2ccc(-n3ccc(C(N)=O)n3)c(-c3oc(C4CC4)nc3-c3ccc(OC(F)(F)F)cc3)c2)c1 [Example 361, 1-(3-(2-cyclopropyl-4-(4-(trifluoromethoxy)phenyl)oxazol-5-yl)-3′-(methylsulfonyl)-[1,1′-biphenyl]-4-yl)-1H-pyrazole-3-carboxamide]
  EC50: 652 nM
  Emax: 12%
